The text below walks through data of patent publication US12351571B2, “Substituted quinoxaline compounds as inhibitors of FGFR tyrosine kinases” (ARRAY BIOPHARMA INC., priority 2018, dated 2025).

Experiment [1] addresses human wild type FGFR1 (Homo sapiens (Human), UniProt P11362). Put plainly: FGFR1 pERK Cell Assay. Format: cell-based. To be noted: HEK-293 cells, 1 hour compound, 100 ng/ml human FGF-acidic; maximum concentration 5 μM. As for the experimental part:
HEK-293 cells transfected with doxycycline(dox)-inducible human wild type FGFR1 (SEQ ID NO: 1) were plated in a collagen or poly-D-lysine coated 96 well flat bottom plates at 4×10^5 cells/well in complete Dulbecco's Modified Eagle Medium (DMEM) containing 10% FBS and 1 μg/ml doxycycline and allowed to attach for 24 h at 37° C., 5% CO2. Cells were treated with compound using 1:3 serial dilutions with a maximum final concentration of 5 μM. Compound was incubated on cells for 1 hour at 37° C., 5% CO2. Cells were then stimulated with a final concentration of 100 ng/ml human FGF-acidic (R&D Systems Cat number 232-FA/CF) for 5 minutes at 37° C., 5% CO2. Medium was removed, and cells were lysed with lysis buffer containing phosphatase and protease inhibitors. Phospho ERK1/2 was measured using the Meso Scale Discovery sandwich assay (Meso Scale Discovery cat. no. K151DWD). The assay captures phospho ERK1/2 and detects with a sulfo-tagged total ERK1/2 antibody. The chemiluminescent signal was read on the Sector Imager Plate reader. 100 POC was determined using no test compound and 0 POC was determined using a control compound. The POC values were fit to a 4-parameter logistic curve as a function of the concentration of the compound, and the IC50 value is the point where the curve crosses 50 POC.

Experiment [2] deals with T1, FGFR3 (Homo sapiens (Human), UniProt P22607). The experiment in a line: FGFR Enzyme Activity Assay (LanthaScreen TR-FRET), FGFR3. Type of experiment: biochemical. To be noted: 25 μM ATP, 10 minute incubation; read-out: FGFR3 Enz FRET IC50. As for the experimental part: FGFR3 kinase activity was measured by the Invitrogen LanthaScreen™ Assay technology which directly measures the amount of substrate phosphorylation by TR-FRET using a flourescently-labeled peptide and Europium-labeled antibody. Briefly, 750 pM N-terminal GST-HIS6 fusion protein with a 3C cleavage site recombinant human FGFR3 (amino acids R397-T806) (ProQinase Cat. No. 1068-0000-1) was incubated with 100 nM Alexa Fluor® 647-Poly-GT Peptide Substrate (Life Technologies Cat. No. PV5836) and 25 μM ATP along with test compound in a buffer consisting of 250 mM HEPES, 25 mM MgCl2, 0.05% TritonX-100, pH 7.5, and 2% DMSO. Compounds were typically prepared in a threefold serial dilution in DMSO and added to the assay to give the appropriate final concentration. After a 10 minute incubation at 22° C., an equal volume of 2 nM LanthaScreen® Eu-PY20 Antibody (Life Technologies Cat. No. PV5691) and 10 mM EDTA were added to quench the kinase reaction and start the detection reaction. After an additional 60 minute incubation at 22° C., the reaction was measured using a PerkinElmer EnVision multimode plate reader via TR-FRET dual wavelength detection, and the percent of control (POC) calculated using a ratiometric emission factor. 100 POC was determined using no test compounds and 0 POC was determined using no enzyme. The POC values were fit to a 4-parameter logistic curve as a function of the concentration of the compound, and the IC50 value is the point where the curve crosses 50 POC.
A general note: In TR-FRET formats the signal depends on donor and acceptor labels being close together.
Target sequence in this assay (P22607 397-806): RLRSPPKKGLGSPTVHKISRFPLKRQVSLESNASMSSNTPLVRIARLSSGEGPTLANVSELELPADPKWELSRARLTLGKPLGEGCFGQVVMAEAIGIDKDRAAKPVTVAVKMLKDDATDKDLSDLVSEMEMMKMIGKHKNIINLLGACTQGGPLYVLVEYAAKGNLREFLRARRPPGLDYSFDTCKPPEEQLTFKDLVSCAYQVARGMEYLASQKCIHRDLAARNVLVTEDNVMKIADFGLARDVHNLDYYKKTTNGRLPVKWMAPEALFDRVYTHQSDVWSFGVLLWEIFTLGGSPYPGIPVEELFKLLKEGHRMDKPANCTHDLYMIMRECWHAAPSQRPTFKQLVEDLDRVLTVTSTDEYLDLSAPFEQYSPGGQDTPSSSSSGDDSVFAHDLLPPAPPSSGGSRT

In experiment [3] the target is FGFR1 (Homo sapiens (Human), UniProt P11362). The experiment in a line: LC/MS FGFR1 kobs assay (covalent modification). To be noted: 500 nM FGFR1, 3 μM compound. Format: biochemical. As for the experimental part:
(§1) The LC/MS FGFR1 and FGFR3 kobs assays were conducted as follows. 500 nM FGFR1 (Array BioPharma construct p1702; SEQ ID NO: 1, amino acids 458-765) or FGFR3 (Array BioPharma construct p1700; SEQ ID NO: 5, amino acids 449-759) were incubated with 3 μM compound in 25 mM HEPES (4-(2-hydroxyethyl)-1-piperazineethanesulfonic acid), pH 7.4, 5 mM MgCl2, 150 mM NaCl, 0.5 mM TCEP (tris(2-carboxyethyl) phosphine), and 2% DMSO in a total volume of 20 μL. At each time point, the reaction was quenched with 20 μL of 0.4% formic acid. The extent of protein modification by each compound was determined by LC/MS on an Agilent Technologies 6520 Q-TOF LC/MS. Protein signals were then automatically deconvoluted using Agilent Masshunter software. Deconvoluted mass signals were exported to Tibco Spotfire data analysis program for further processing and normalization.
(§2) Data analysis included five steps. First, the signals for the “DMSO Controls” were analyzed to determine the percent of signal associated with unmodified FGFR1 or FGFR3 at each time point. Next, the percent of the signal associated with the covalent modification was determined. Third, the average nonmodified “DMSO Control” signal was used to normalize the modified protein signals at each time point. The percent of unmodified protein was fit to an exponential decay model where A0 is the Percent Unmodified at the start of the reaction, and kobs is the observed rate constant over the time period.

Experiment [4] deals with T1, FGFR3. Put plainly: LC/MS FGFR3 kobs assay (covalent modification). To be noted: 500 nM FGFR3, 3 μM compound. Format: biochemical. As for the experimental part:
as §1, §2
Target sequence in this assay (P22607 449-759): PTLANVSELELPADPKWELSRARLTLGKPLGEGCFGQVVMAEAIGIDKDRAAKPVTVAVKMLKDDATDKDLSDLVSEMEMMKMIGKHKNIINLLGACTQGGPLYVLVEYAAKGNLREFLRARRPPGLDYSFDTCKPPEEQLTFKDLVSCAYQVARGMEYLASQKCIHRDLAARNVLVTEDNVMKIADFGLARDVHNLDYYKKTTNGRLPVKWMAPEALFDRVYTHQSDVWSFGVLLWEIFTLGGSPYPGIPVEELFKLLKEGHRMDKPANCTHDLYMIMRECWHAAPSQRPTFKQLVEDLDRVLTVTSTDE

The target in experiment [5] is phosphorylated FGFR3 (Homo sapiens (Human), UniProt P22607). The experiment in a line: FGFR Enzyme Binding Assay (HTRF tracer displacement), FGFR3. To be noted: 5 nM phosphorylated FGFR3, 60 minute incubation at 22° C.; read-out: FGFR3 Enz Binding IC50. How it is done: The potency of compounds inhibiting human isoforms of FGFR kinase was determined using Life Technologies' Homogeneous Time Resolved Fluorescence (HTRF)-based binding assay technology. An incubation was conducted with either 5 nM dephosphorylated FGFR1 (Array Biopharma, p1702; SEQ ID NO: 1, amino acids 458 to 765, dephosphorylated by co-expression with PTP1b (protein tyrosine phosphatase 1B)), 5 nM dephosphorylated FGFR2 (Life Technologies, Cat. No. PV4106 that had been dephosphorylated with Lambda protein phosphatase (New England Biolabs, cat #P0753)) or 5 nM phosphorylated FGFR3 (Array Biopharma, p1836; SEQ ID NO: 5, amino acids 449 to 759), 50 nM Kinase Tracer 236 (Life Technologies Cat. No. PR9078A), 2 nM Biotin-anti-6HIS (Life Technologies Cat. No. PV6090) and 2 nM Europium-Streptavidin (Life Technologies Cat. No. PV6025) along with test compound in a buffer consisting of 50 mM HEPES ((4-(2-hydroxyethyl)-1-piperazineethanesulfonic acid, pH 7.5), 5 mM MgCl2, 0.005% Triton X-100, 1 mM DTT, 1 mM NaVO4 and 2% DMSO in a final volume of 12 μL Compounds were typically prepared as a 3-fold or 4-fold serial dilution in DMSO and added to the assay to give the appropriate final concentration. After a 60 minute incubation at 22° C., the extent of tracer displacement was determined using a PerkinElmer EnVision multimode plate reader via HTRF dual wavelength detection, and the percent of control (POC) was calculated using a ratiometric emission factor. One hundred POC was determined using no test compound, and 0 POC was determined in the presence of 1 μM of an appropriate control inhibitor. A 4-parameter logistic curve was fit to the POC values as a function of the concentration of compound, and the IC50 value was the point where the best-fit curve crossed 50 POC.

Bounds are passed on as bounds.

Chain of human wild type FGFR1 (P11362 22-822): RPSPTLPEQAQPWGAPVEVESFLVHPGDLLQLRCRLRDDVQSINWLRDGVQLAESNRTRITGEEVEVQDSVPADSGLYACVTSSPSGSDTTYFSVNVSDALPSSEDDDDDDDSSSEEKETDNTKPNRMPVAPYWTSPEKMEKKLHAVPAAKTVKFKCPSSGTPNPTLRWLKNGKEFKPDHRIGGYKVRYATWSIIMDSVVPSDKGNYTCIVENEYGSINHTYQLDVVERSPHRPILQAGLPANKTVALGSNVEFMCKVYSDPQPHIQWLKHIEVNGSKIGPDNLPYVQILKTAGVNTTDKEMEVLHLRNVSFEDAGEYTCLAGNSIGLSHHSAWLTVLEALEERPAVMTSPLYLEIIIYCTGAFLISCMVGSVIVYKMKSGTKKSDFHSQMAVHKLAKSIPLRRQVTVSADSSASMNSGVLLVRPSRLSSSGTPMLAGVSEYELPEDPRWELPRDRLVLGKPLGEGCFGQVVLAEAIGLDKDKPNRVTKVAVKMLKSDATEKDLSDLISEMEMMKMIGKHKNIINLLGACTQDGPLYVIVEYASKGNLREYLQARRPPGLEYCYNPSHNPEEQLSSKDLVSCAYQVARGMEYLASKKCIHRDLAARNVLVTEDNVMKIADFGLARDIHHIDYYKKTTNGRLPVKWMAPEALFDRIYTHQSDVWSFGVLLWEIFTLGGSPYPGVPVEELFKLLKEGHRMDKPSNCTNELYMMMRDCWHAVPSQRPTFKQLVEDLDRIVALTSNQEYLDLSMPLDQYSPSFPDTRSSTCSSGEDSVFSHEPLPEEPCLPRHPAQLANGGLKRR
Chain of phosphorylated FGFR3 (P22607 449-759): as the sequence (P22607 449-759) above
Chain of FGFR1 (P11362 458-765): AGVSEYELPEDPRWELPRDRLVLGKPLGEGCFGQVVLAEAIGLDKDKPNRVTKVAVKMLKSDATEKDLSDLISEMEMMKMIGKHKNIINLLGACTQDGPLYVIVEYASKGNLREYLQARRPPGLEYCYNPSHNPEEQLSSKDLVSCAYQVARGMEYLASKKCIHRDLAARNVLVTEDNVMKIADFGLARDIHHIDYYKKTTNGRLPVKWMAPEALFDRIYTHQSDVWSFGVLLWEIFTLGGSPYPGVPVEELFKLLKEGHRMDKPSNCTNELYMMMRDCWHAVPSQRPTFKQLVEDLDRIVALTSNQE

The term IC50 denotes the point on the concentration scale where inhibition reaches its midpoint. Regarding `COc1cc(Nc2ccc3ncc(-c4cnn(C5CCN(C(=O)C6(F)CN(C(=O)/C=C/CN(C)C)C6)CC5)c4)nc3c2)cc(OC)c1` [Example 10, (E)-1-(3-(4-(4-(7-((3,5-dimethoxyphenyl)amino)-quinoxalin-2-yl)-1H-pyrazol-1-yl)piperidine-1-carbonyl)-3-fluoro-azetidin-1-yl)-4-(dimethylamino)but-2-en-1-one], the IC50 in experiment [1] was 134 nM; in experiment [2], 16 nM; in experiment [5] it was 3 nM. For the same molecule, in experiment [3], the “FGFR1 Enz kobs” value worked out at 0.01569 min⁻¹. Moreover, the “FGFR3 Enz kobs” value in experiment [4] came to 0.09291 min⁻¹.
Consider `COc1cc(Nc2ccc3ncc(-c4ccc(N5CCN(C(=O)C6(F)CN(C(=O)/C=C/CN(C)C)C6)CC5)nc4)nc3c2)cc(OC)c1` [Example 7, (E)-1-(3-(4-(5-(7-((3,5-dimethoxyphenyl)amino)-quinoxalin-2-yl)pyridin-2-yl)piperazine-1-carbonyl)-3-fluoroazetidin-1-yl)-4-(dimethylamino)but-2-en-1-one], for which the results for the half-inhibitory concentration (IC50) in experiment [1], in experiment [2] and in experiment [5] were 1530 nM, 277 nM and 11 nM, respectively. Moreover, in experiment [3], the “FGFR1 Enz kobs” value came out at 0.00659 min⁻¹. For the same molecule, the “FGFR3 Enz kobs” value in experiment [4] was determined as 0.1309 min⁻¹.
On to `COc1cc(Nc2ccc3ncc(-c4cnn(C5CCN(C(=O)C6(C#N)CN(C(=O)/C=C/CN(C)C)C6)CC5)c4)nc3c2)cc(OC)c1` [Example 11, (E)-3-(4-(4-(7-((3,5-dimethoxyphenyl)amino)-quinoxalin-2-yl)-1H-pyrazol-1-yl)piperidine-1-carbonyl)-1-(4-(dimethyl-amino)but-2-enoyl)-azetidine-3-carbonitrile], for which the results for the IC50 in experiment [1], in experiment [2] and in experiment [5] were 149 nM, 7 nM and 3 nM, respectively. Moreover, the “FGFR1 Enz kobs” value in experiment [3] came out at 0.01822 min⁻¹. For the same molecule, in experiment [4], the “FGFR3 Enz kobs” value came to 0.1473 min⁻¹.
The matching figures for `COc1cc(Nc2ccc3ncc(-c4cnc(N5CCN(C(=O)C6(F)CN(C(=O)/C=C/CN(C)C)C6)CC5)cc4C)nc3c2)cc(OC)c1` [Example 14, (E)-1-(3-(4-(5-(7-((3,5-dimethoxyphenyl)amino)-quinoxalin-2-yl)-4-methylpyridin-2-yl)-piperazine-1-carbonyl)-3-fluoroazetidin-1-yl)-4-(dimethylamino)but-2-en-1-one]: 1940 nM, 490 nM, 123 nM, 0.00326 min⁻¹ and 0.04226 min⁻¹.
For `COc1cc(Nc2ccc3ncc(-c4cnn([C@@H]5CCN(C(=O)C6CN(C(=O)/C=C/CN(C)C)C6)C5)c4)nc3c2)cc(OC)c1` [Example 20, (R,E)-1-(3-(3-(4-(7-((3,5-dimethoxyphenyl)amino)-quinoxalin-2-yl)-1H-pyrazol-1-yl)pyrrolidine-1-carbonyl)azetidin-1-yl)-4-(dimethylamino)but-2-en-1-one], in that order: no less than 5000 nM, 42 nM, 5 nM, 0.00141 min⁻¹ and 0.00892 min⁻¹.
The matching figures for `C=CC(=O)N1CC(C(=O)N2CC(n3cc(-c4cnc5ccc(Nc6cc(OC)cc(OC)c6)cc5n4)cn3)C2)C1` [Example 16, 1-(3-(3-(4-(7-((3,5-dimethoxyphenyl)amino)-quinoxalin-2-yl)-1H-pyrazol-1-yl)azetidine-1-carbonyl)azetidin-1-yl)-prop-2-en-1-one]: 3000 nM, 18 nM, 5 nM, 0.00151 min⁻¹ and 0.01232 min⁻¹.
For the molecule `C=CC(=O)N1CC(C(=O)N2CC[C@@H](n3cc(-c4cnc5ccc(Nc6cc(OC)cc(OC)c6)cc5n4)cn3)C2)C1` [Example 21, (R)-1-(3-(3-(4-(7-((3,5-dimethoxyphenyl)amino)-quinoxalin-2-yl)-1H-pyrazol-1-yl)pyrrolidine-1-carbonyl)azetidin-1-yl)prop-2-en-1-one], the IC50 in experiment [1] is 1890 nM; in experiment [2], 37 nM; in experiment [5], 5 nM. Also, in experiment [3], the “FGFR1 Enz kobs” value was determined as 0.00106 min⁻¹. In addition, in experiment [4], the “FGFR3 Enz kobs” value stood at 0.00664 min⁻¹.
On to `C=CC(=O)N1CC(OC)(C(=O)N2CCC(n3cc(-c4cnc5ccc(Nc6cc(OC)cc(OC)c6)cc5n4)cn3)CC2)C1` [Example 24, 1-(3-(4-(4-(7-((3,5-dimethoxyphenyl)amino)-quinoxalin-2-yl)-1H-pyrazol-1-yl)piperidine-1-carbonyl)-3-methoxy-azetidin-1-yl)prop-2-en-1-one], for which the IC50 stood at 225 nM in experiment [1], 24 nM in experiment [2] and 9 nM in experiment [5]. Moreover, the “FGFR1 Enz kobs” value in experiment [3] turned out to be 0.00223 min⁻¹. The “FGFR3 Enz kobs” value in experiment [4] came to 0.01322 min⁻¹.
In the case of `C=CC(=O)N1CC(CN2CCC(n3cc(-c4cnc5ccc(Nc6cc(OC)cc(OC)c6)cc5n4)cn3)CC2)C1` [Example 30, 1-(3-((4-(4-(7-((3,5-dimethoxyphenyl)amino)quinoxalin-2-yl)-1H-pyrazol-1-yl)piperidin-1-yl)methyl)azetidin-1-yl)prop-2-en-1-one], the IC50 in experiment [1] is 225 nM; in experiment [2] it was 26 nM; in experiment [5], 3 nM. Also, in experiment [3], the “FGFR1 Enz kobs” value worked out at 0.00172 min⁻¹. Further, the “FGFR3 Enz kobs” value in experiment [4] is 0.01591 min⁻¹.
